Measurements: patent US4059704A, “Tetrazole coumarin derivatives” (Beecham Group Limited, priority 1973, dated 1977)

Columns and labels:
Rat PCA response = experiment: Rat Passive Cutaneous Anaphylaxis (PCA) test; assay type: in vivo, Wistar rats
Experimental: All of the coumarins prepared in the preceeding Examples were submitted for biological testing. The test system was the Rat Passive Cutaneous Anaphylaxis (PCA) test described below in (ii)
i. Serum containing heat labile homocytotropic antibody was raised in rats by a method similar to that used by Mota. (I. Mota Immunology 1964, 7,681).
Male Wistar rats of 250-300 g, were injected intraperitoneally with 0.5 of Bordatella pertussis vaccine (containing 4 × 10^10 dead organism per ml.) and subcutaneously with 0.5 ml of an emulsion of adjuvant. Rats were bled by cardiac puncture on day 18, the blood was pooled and separated and serum stored at -20° and thawed only once before use.
ii. The P.C.A. test was similar to that described by Ovary and Bier (A. Ovary and O. E. Bier, Proc.Soc.Exp. Biol.Med. 1952, 81, 584) and Goose and Blair (J. Goose and AMJ. N. Blair, Immunology 1969, 16, 769).
0.1 ml of each of six twofold serial dilutions of the serum in 0.9% saline were injected intradermally into separate sites on the shaved dorsal surface of 250-350 g. Wistar rats. 72 hours later the animals were challenged by i.v. injection of 0.3 ml of 1% ovalbumin mixed with 0.1 ml of a 5% solution of pontamine sky blue dye in isotonic saline buffered with pH. 7.2 Sorenson buffer (P.B.S.). The rats were killed after 20 minutes and the diameter of the blue wheals at the antibody injection sites were measured. The starting dilution of the serum was adjusted so that there was no response, after challenge, at the site of injection of the highest dilution and a maximum response at the lowest dilution. Typically, six twofold serial dilutions of the serum from 1/4 to 1/128 were used.
Compounds were tested for their ability to reduce the diameter of the wheals at the injection sites of dilutions of antibody which on all the controls have less than maximum response. Amounts of the compounds were administered to rats each amount to a test group of six animals at a specified time prior to intravenous challenge with ovalbumin. The diameters of the blue wheals which developed on the tests group of animals were compared with those on a control group of six animals treated in the same way as the test group, but which had not received the compound under test.
% Inhibition of P.C.A. = 100 (1 - a/b)
a = The mean of the sum of the diameters of the wheals produced in the test group of animals at those antibody sites where all the control group of animals gave less than maximum response.
b = The mean of the sum of diameters of the wheals produced in the control group of animals at those antibody sites where all the animals gave less than maximum response.
The preferred method of administration was a solution of the test compound dissolved in pH 7.2 buffer and neutralised with sodium bicarbonate.

[1] = anti-allergic activity (general statement, no test detailed); conditions: in our hands
[2] = authors' conclusion in J.Chem.Soc. Perkin Trans I, 779, 1972; cited from earlier work
[3] = 0.5 h, time 30 mins prior to challenge
[4] = 10 min, time 10 mins prior to challenge
[5] = 1 h, time 60 mins prior to challenge

Structure (SMILES) | inhibition in vivo at 25 mg/kg (Rat PCA response; [3]) | inhibition in vivo at 100 mg/kg (Rat PCA response; [3]) | inhibition in vivo at 25 mg/kg (Rat PCA response; [5]) | inhibition in vivo at 100 mg/kg (Rat PCA response; [5]) | also measured
Cc1c(-c2nnn[nH]2)c(=O)oc2c(Cl)cccc12 [Example 7, 8-Chloro-4-methyl-3-(tetrazol-5-yl) coumarin] | 19% | 26% |  |  | 
Cc1cc2oc(=O)c(-c3nnn[nH]3)c(C)c2cc1C [Example 4, 3-(Tetrazol-5-yl)-4,6,7-trimethyl coumarin] | 47% | 70% |  |  | 
CCc1cc2oc(=O)c(-c3nnn[nH]3)c(C)c2cc1CC [Example 12, 6,7-Diethyl-4-methyl-3(tetrazol-5-yl) coumarin] |  |  | 10% | 42% | inhibition in vivo at 25 mg/kg (Rat PCA response; [4]): -6%; inhibition in vivo at 100 mg/kg (Rat PCA response; [4]): -1%
Cc1ccc2oc(=O)c(-c3nnn[nH]3)c(C)c2c1 [Example 5, 4,6-Dimethyl-3-(tetrazol-5-yl) coumarin] |  |  | 32% | 19% | 
O=c1oc2ccccc2c(-c2ccccc2)c1-c1nnn[nH]1 [Example 11, 4-Phenyl-3-(tetrazol-5-yl) coumarin] | -10% | 14% |  |  | 
Cc1c(-c2nnn[nH]2)c(=O)oc2c1ccc1ccccc12 [Example 8, 7,8-Benzo-4-methyl-3-(tetrazol-5-yl) coumarin] |  |  | 20% | 30% | 
CCc1c(-c2nnn[nH]2)c(=O)oc2ccccc12 [Example 9, 4-Ethyl-3-(tetrazol-5-yl) coumarin] | 19% | 70% |  |  | 
Cc1c(-c2nnn[nH]2)c(=O)oc2ccc(Br)cc12 [Example 2, 6-Bromo-4-methyl-3-(tetrazol-5-yl) coumarin] |  |  | 36% | 44% | 
Cc1c(-c2nnn[nH]2)c(=O)oc2ccc(Cl)cc12 [Example 3, 6-Chloro-4-methyl-3-(tetrazol-5-yl) coumarin] |  |  | 28% | 35% | 
Cc1ccc2c(C)c(-c3nnn[nH]3)c(=O)oc2c1 [Example 6, 4,7-Dimethyl-3-(tetrazol-5-yl) coumarin] | 42% | 45% |  |  | 
CCCc1c(-c2nnn[nH]2)c(=O)oc2ccccc12 [Example 10, 4-n-Propyl-3-(tetrazol-5-yl) coumarin] | -12% | 45% |  |  | 
Cc1c(-c2nnn[nH]2)c(=O)oc2ccccc12 [Example 1, 4-Methyl-3-(tetrazol-5-yl) coumarin, reference compound] |  |  | 38% | 48% | antiallergic activity [1]: substantial antiallergic activity; anti-allergic activity [2]: no anti-allergic activity
